Experimental data as given in patent US20260138959A1, “QUINAZOLINE DERIVATIVE COMPOUND AND USE THEREOF” (VORONOI INC., priority 2021, published 2026).

Key:
human PDGFR-β(wt) = molecular target: T1, human PDGFR-β(wt) (Homo sapiens, UniProt P09619); assay: Enzyme inhibitory activity, ADP-Glo kinase assay, PDGFR-β(wt); format: biochemical; details: read-out: PDGFR-β (IC50 class)
T1 construct: purchased Signalchem P13-11G
Method: In order to evaluate the inhibitory activity of the compounds synthesized according to the above examples on PDGFR-α(wt), PDGFR-β(wt), c-KIT(wt), and c-KIT(D816V) kinases, the following method was performed. The compounds of examples were reacted with purified human PDGFR-α(wt) (Signalchem #P12-18G) enzyme, human PDGFR-β(wt) (Signalchem #P13-11G) enzyme, human c-KIT(wt) (Signalchem #K06-11BG) enzyme, human c-KIT(D816V) (Signalchem #C06-12LG) enzyme, and the enzyme inhibitory abilities were evaluated by the following method.
The reaction buffer was used as a composition of 40 mM Tris-HCl pH7.4, 20 mM MgCl2, 0.5 mg/ml BSA, 50 μM DTT, and the reactions of all the tests were carried out on the reaction buffer. The compound was diluted in 12 steps using a serial dilution method from a 10 mM DMSO stock, and the enzyme activity was measured at a final compound concentration of 10˜0.00005645 μM. During the test, the enzyme activity was confirmed using in vitro ADP-Glo™ kinase assay (Promega) after reacting with the proper concentration of human PDGFR-α(wt) enzyme, human PDGFR-β(wt), human c-KIT(wt) enzyme, and human c-KIT(D816V) enzyme with purified ATP and enzyme substrate at 25° C. for 1˜2 hours. At a ratio of 2:2:1, an enzyme-active reaction solution, an ADP-Glo reaction solution, and an enzyme-active detection solution were reacted to measure the inhibition of the enzyme's activity with luminoscence. Based on the […] of the enzyme activity of the solvent control that was not treated with the compound, the degree of enzyme activity inhibition was calculated according to the treatment concentration of each compound, and the concentration of each compound that inhibits 50% of enzyme activity was determined as IC50 (nM) value and the value was obtained by using GraphPad Prism 8.3.0 (GraphPad software Inc., San Diego) software. (A: IC50≤50 nM; B: 50 nM<IC50≤100 nM; C: 100 nM<IC50≤500 nM; D: IC50>500 nM).

Ba/F3-c-KIT(D816V) = assay: Proliferation inhibitory activity on Ba/F3 cell (CellTiter-Glo, 72 hours), c-KIT(D816V); format: cell-based; details: Mus musculus, BaF3, read-out: Ba/F3 (nM) c-KIT (D816V) (GI50 class)
In short: (§1)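 3×10^3 Ba/F3 cells/well; cpd 0.00005-10 μM final, 3-fold × 12 pts, DMSO ctrl; 37 °C CO2, 72 h. CellTiter-Glo added, ~10 min RT, luminescence read. GI50 (nM) vs vehicle.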

c-KIT V560G/D816V = assay: Proliferation inhibitory activity on Ba/F3 cell (CellTiter-Glo, 72 hours), c-KIT V560G/D816V; format: cell-based; details: Mus musculus, BaF3, c-KIT V560G/D816V cells, read-out: Cell (nM) c-KIT V560G/D816V (GI50 class)
In short: as §1

T1 sequence (P09619 33-1106): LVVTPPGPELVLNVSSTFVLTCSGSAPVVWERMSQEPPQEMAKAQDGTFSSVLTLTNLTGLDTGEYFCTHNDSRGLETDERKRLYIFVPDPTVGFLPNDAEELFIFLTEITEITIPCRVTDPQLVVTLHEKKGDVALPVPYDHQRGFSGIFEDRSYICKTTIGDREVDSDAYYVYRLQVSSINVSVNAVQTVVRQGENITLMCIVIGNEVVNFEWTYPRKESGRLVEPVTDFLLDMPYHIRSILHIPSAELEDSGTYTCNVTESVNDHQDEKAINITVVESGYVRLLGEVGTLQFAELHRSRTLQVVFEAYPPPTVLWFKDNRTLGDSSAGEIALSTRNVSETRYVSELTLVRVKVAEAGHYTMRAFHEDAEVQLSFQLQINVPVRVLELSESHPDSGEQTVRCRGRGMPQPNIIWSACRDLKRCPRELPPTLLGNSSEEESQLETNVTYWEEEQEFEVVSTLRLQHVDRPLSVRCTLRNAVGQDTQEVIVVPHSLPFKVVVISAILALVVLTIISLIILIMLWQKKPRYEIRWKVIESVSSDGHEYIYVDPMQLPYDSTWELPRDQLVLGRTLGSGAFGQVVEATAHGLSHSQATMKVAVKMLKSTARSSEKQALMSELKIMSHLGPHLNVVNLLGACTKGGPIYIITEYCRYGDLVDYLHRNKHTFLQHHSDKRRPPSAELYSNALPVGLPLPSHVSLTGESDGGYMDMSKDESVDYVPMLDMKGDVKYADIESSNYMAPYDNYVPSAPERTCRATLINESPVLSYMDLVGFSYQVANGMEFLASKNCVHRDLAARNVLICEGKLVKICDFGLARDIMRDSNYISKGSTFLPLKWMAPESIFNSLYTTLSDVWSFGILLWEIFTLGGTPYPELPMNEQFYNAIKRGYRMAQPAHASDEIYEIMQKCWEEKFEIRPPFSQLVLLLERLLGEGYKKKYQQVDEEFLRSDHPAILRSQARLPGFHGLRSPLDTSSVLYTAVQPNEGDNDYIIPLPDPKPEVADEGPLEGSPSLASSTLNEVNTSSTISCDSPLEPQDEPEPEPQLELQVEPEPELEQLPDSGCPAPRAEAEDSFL

IC50 (human PDGFR-β(wt)) [nM]	GI50 (Ba/F3-c-KIT(D816V)) [nM]	GI50 (c-KIT V560G/D816V) [nM]	Compound
≤ 50	≤ 200	≤ 200	COc1cc2c(-c3ccc(NC(=O)Cc4ccc(C(F)(F)F)cc4)cc3)ncnc2cc1OC[C@H]1CCCNC1 [Example 75, (S)-N-(4-(6-methoxy-7-(piperidin-3-ylmethoxy)quinazolin-4-yl)phenyl)-2-(4-(trifluoromethyl)phenyl)acetamide]
≤ 50	≤ 200	≤ 200	CCN1CCC(COc2cc3ncnc(-c4ccc(NC(=O)Cc5cccc(C(F)(F)F)c5)cc4)c3cc2OC)CC1 [Example 64, N-(4-(7-((1-ethylpiperidin-4-yl)methoxy)-6-methoxyquinazolin-4-yl)phenyl)-2-(3-(trifluoromethyl)phenyl)acetamide]
≤ 50	≤ 200	≤ 200	CCN1CCC(COc2cc3ncnc(-c4ccc(NC(=O)Cc5ccc(C(F)(F)F)nc5)cc4)c3cc2OC)CC1 [Example 63, N-(4-(7-((1-ethylpiperidin-4-yl)methoxy)-6-methoxyquinazolin-4-yl)phenyl)-2-(6-(trifluoromethyl)pyridin-3-yl)acetamide]
≤ 50	200 to 500	–	COc1cc2ncnc(-c3ccc(NC(=O)Cc4ccc(C(F)(F)F)cc4)cc3)c2cc1OCC1CCCN(C(=O)OC(C)(C)C)C1 (centres unmarked) [Example 130, tert-butyl 3-(((7-methoxy-4-(4-(2-(4-(trifluoromethyl)phenyl)acetamido)phenyl)quinazolin-6-yl)oxy)methyl)piperidin-1-carboxylate]
≤ 50	≤ 200	≤ 200	COc1cc2c(-c3ccc(NC(=O)Cc4ccc(C(F)(F)F)cc4)cc3)ncnc2cc1OCCCN1C2CC1CN(C)C2 [Example 37, N-(4-(6-methoxy-7-(3-(3-methyl-3,6-diazabicyclo[3.1.1]heptane-6-yl)propoxy)quinazolin-4-yl)phenyl)-2-(4-(trifluoromethyl)phenyl)acetamide]
≤ 50	–	≤ 200	COCCN1CCC(COc2cc3ncnc(-c4ccc(NC(=O)Cc5ccc(C(F)(F)F)nc5)cc4)c3cc2OC)CC1 [Example 96, N-(4-(6-methoxy-7-((1-(2-methoxyethyl)piperidin-4-yl)methoxy)quinazolin-4-yl)phenyl)-2-(6-(trifluoromethyl)pyridin-3-yl)acetamide]
≤ 50	≤ 200	–	COc1cc2c(-c3ccc(NC(=O)Cc4ccc(Cl)nc4)cc3)ncnc2cc1OCC1CCNCC1 [Example 69, 2-(6-chloropyridin-3-yl)-N-(4-(6-methoxy-7-(piperidin-4-ylmethoxy)quinazolin-4-yl)phenyl)acetamide]
≤ 50	≤ 200	≤ 200	CCN1CCC(COc2cc3ncnc(-c4ccc(NC(=O)Cc5ccc(Cl)nc5)cc4)c3cc2OC)CC1 [Example 70, 2-(6-chloropyridin-3-yl)-N-(4-(7-((1-ethylpiperidin-4-yl)methoxy)-6-methoxyquinazolin-4-yl)phenyl)acetamide]
≤ 50	≤ 200	≤ 200	CCN1CCC[C@@H](COc2cc3ncnc(-c4ccc(NC(=O)Cc5ccc(C(F)(F)F)cc5)cc4)c3cc2OC)C1 [Example 74, (R)-N-(4-(7-((1-ethylpiperidin-3-yl)methoxy)-6-methoxyquinazolin-4-yl)phenyl)-2-(4-(trifluoromethyl)phenyl)acetamide]
≤ 50	> 500	–	COc1cc2ncnc(-c3ccc(NC(=O)Cc4ccc(C(F)(F)F)cc4)cc3)c2cc1OCCCN1CC(CO)(CO)C1 [Example 150]
≤ 50	≤ 200	200 to 500	COc1cc2ncnc(-c3ccc(NC(=O)Cc4ccc(C(F)(F)F)cc4)cc3)c2cc1OCCCN1CCOCC1 [Example 129, N-(4-(7-methoxy-6-(3-morpholinopropoxy)quinazolin-4-yl)phenyl)-2-(4-(trifluoromethyl)phenyl)acetamide]
50 to 100	–	–	COc1cc2c(-c3ccc(NC(=O)Nc4ccc(Cl)c(C(F)(F)F)c4)cc3)ncnc2cc1OCCCN1CCN(C)CC1 [Example 168, 1-(4-chloro-3-(trifluoromethyl)phenyl)-3-(4-(6-methoxy-7-(3-(4-methylpiperazin-1-yl)propoxy)quinazolin-4-yl)phenyl)urea]
≤ 50	≤ 200	≤ 200	COc1ccc(CC(=O)Nc2ccc(-c3ncnc4cc(OCCCN5CCN(C)CC5)c(OC)cc34)cc2)cn1 [Example 81, N-(4-(6-methoxy-7-(3-(4-methylpiperazin-1-yl)propoxy)quinazolin-4-yl)phenyl)-2-(6-methoxypyridin-3-yl)acetamide]
≤ 50	200 to 500	–	COc1cc2ncnc(-c3ccc(NC(=O)Cc4ccc(C(F)(F)F)cc4)cc3)c2cc1OC1CCN(C(=O)OC(C)(C)C)CC1 [Example 137, tert-butyl 4-((7-methoxy-4-(4-(2-(4-(trifluoromethyl)phenyl)acetamido)phenyl)quinazolin-6-yl)oxy)piperidin-1-carboxylate]
≤ 50	200 to 500	–	COc1cc2c(-c3ccc(NC(=O)Cc4ccc(C(F)(F)F)nc4)cc3)ncnc2cc1OCC1CCNCC1 [Example 59, N-(4-(6-methoxy-7-(piperidin-4-ylmethoxy)quinazolin-4-yl)phenyl)-2-(6-(trifluoromethyl)pyridin-3-yl)acetamide]
≤ 50	≤ 200	≤ 200	COc1cc2c(-c3ccc(NC(=O)Cc4ccc(C(F)(F)F)cc4)cc3)ncnc2cc1OCCCN1C[C@@H]2C[C@H]1CN2C [Example 32, N-(4-(6-methoxy-7-(3-((1S,4S)-5-methyl-2,5-diazabicyclo[2.2.1]heptane-2-yl)propoxy)quinazolin-4-yl)phenyl)-2-(4-(trifluoromethyl)phenyl)acetamide]
≤ 50	≤ 200	≤ 200	CCN1CCC[C@H](COc2cc3ncnc(-c4ccc(NC(=O)Cc5ccc(C(F)(F)F)cc5)cc4)c3cc2OC)C1 [Example 76, (S)-N-(4-(7-((1-ethylpiperidin-3-yl)methoxy)-6-methoxyquinazolin-4-yl)phenyl)-2-(4-(trifluoromethyl)phenyl)acetamide]
≤ 50	≤ 200	≤ 200	COc1cc2c(-c3ccc(NC(=O)Cc4ccc(Cl)c(C(F)(F)F)c4)cc3)ncnc2cc1OCCCN1CCN(C)CC1 [Example 82, 2-(4-chloro-3-(trifluoromethyl)phenyl)-N-(4-(6-methoxy-7-(3-(4-methylpiperazin-1-yl)propoxy)quinazolin-4-yl)phenyl)acetamide]
≤ 50	–	≤ 200	COc1cc2c(-c3ccc(NC(=O)Cc4ccc(C(F)(F)F)cc4)cc3)ncnc2cc1OCC1CCN(C)CC1 [Example 56, N-(4-(6-methoxy-7-((1-methylpiperidin-4-yl)methoxy)quinazolin-4-yl)phenyl)-2-(4-(trifluoromethyl)phenyl)acetamide]
≤ 50	–	≤ 200	COc1cc2c(-c3ccc(NC(=O)Cc4ccc(C(F)(F)F)nc4)cc3)ncnc2cc1OCC1CCN(C)CC1 [Example 101, N-(4-(6-methoxy-7-((1-methylpiperidin-4-yl)methoxy)quinazolin-4-yl)phenyl)-2-(6-(trifluoromethyl)pyridin-3-yl)acetamide]
